Test results as given in patent US7531573B2 (priority 1994, dated 2009).
Like-named read-outs stand apart in the source and are kept apart here.

Key:
[1] = tested on: NIH 3T3 mouse fibroblast cells; experiment: Mitogen-induced cell proliferation; type: cell-based; settings: for inhibition at 10 µM: NIH3T3, read-out: Mitogen-induced cell proliferation % Inhibition
From the text: Other cell lines, e.g., cancer cells, endothelial cells and fibroblasts, as well as many others, may be used in the cell proliferation assay. Selection of a particular cell line will depend in part on the desired application, and is well within the capabilities of an ordinarily skilled artisan.

Gardos channel = Gardos channel (Homo sapiens, UniProt O15554); type: binding
[2] = target: T1, red cell calcium-activated potassium transport (Homo sapiens, UniProt O15554); experiment: Red cell Ca2+-activated 86Rb influx inhibition after oral Clotrimazole; type: in vivo; settings: for Ca2+-activated 86Rb influx inhibition %: Subject A
T1 construct: endogenous in cells; host or cells: red cells of two normal human subjects
Protocol: Two subjects, […] (A, 72 kg) and […] (D, 56 kg), ingested one 500 mg CLT tablet every twelve hours for six days, corresponding to a daily CLT dose of 14 and 18 mg/kg, respectively.

red cell Gardos channel = red cell Gardos channel (Homo sapiens, UniProt O15554); experiment: cell-based
Protocol: CLT and metabolite B (Compound 6) were incubated with a red cell suspension at 20% Hct.

[3] = tested on: MM-RU human melanoma cells; experiment: SCID mice inoculated with MM-RU human melanoma cells, lung metastases; type: in vivo; settings: 120 mg/Kg subcutaneous daily for 10 weeks
Protocol: Mice with severe combined immunodeficiency disease (SCID) were inoculated via the lateral tail vein with approximately 2.5×10^6 MM-RU human melanoma cells, a cell line that produces metastases only in the lungs (Byers et al., 1993, Melanoma Res. 3:247-253). Starting on the day of inoculation, subcutaneous injections of either vehicle (control group, n=9) or CLT (120 mg/Kg; treatment group, n=10) was administered daily for a period of 10 weeks. At the end of the 10 week treatment period, the mice were sacrificed and examined for metastases.

[4] = target: T1, red cell calcium-activated potassium transport; experiment: Red cell Ca2+-activated 86Rb influx inhibition after oral Clotrimazole; type: in vivo; settings: Subject B
[5] = target: Gardos channel of erythrocytes (Homo sapiens, UniProt O15554); experiment: cell-based
clinical = type: in vivo; settings: human, plasma, read-out: Levels Plasma; for concentration at 6 day of CLT dosing: CLT day 6; for concentration at 10 day (wash-out): Wash-out day 10; for concentration at 13 day (wash-out): Wash-out day 13; for concentration at 20 day (wash-out): Wash-out day 20
[6] = tested on: Human melanoma cells (MM-RU); experiment: [3H]thymidine uptake in MM-RU cells; type: cell-based; settings: 10 μM
Protocol: (§1) Human melanoma cells (MM-RU) and colon adenocarcinoma cells (HT29) were cultured in the presence and absence of 10 μM CLT metabolite B (Compound 6) as described in Benzaquen et al., 1995, Nature Medicine 1:534-540 and the level of DNA synthesis determined by measuring [^3H]thymidine uptake.

[7] = tested on: colon adenocarcinoma cells (HT29); experiment: [3H]thymidine uptake in HT29 cells; type: cell-based, human; settings: 10 μM
Protocol: as §1

[8] = tested on: hepatic microsomal cytochrome P450; settings: rats; Matsuura et al., 1991; cited from earlier work
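Wherever Levels Plasma is given: oral tablet given every 12 h for six days, about 14 mg/kg per day for this subject, with levels then followed in plasma.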

Sequence of red cell Gardos channel (O15554 whole entry): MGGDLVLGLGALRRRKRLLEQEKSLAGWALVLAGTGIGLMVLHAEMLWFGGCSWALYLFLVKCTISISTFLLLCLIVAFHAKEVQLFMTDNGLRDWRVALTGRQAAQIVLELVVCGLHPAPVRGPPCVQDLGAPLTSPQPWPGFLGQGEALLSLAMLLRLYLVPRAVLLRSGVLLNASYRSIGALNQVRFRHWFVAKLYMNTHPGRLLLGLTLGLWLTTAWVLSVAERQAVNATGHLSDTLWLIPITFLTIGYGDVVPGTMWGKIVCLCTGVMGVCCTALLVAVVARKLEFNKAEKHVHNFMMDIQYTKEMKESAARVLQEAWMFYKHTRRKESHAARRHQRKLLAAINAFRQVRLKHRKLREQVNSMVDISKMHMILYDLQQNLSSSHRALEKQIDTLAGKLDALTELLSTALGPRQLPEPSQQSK
T1 sequence (O15554 whole entry): as above
Sequence of Gardos channel (O15554 whole entry): as above
Sequence of Gardos channel of erythrocytes (O15554 whole entry): as above

In the case of `Clc1ccccc1C(c1ccccc1)(c1ccccc1)n1ccnc1` [Clotrimazole, reference compound], the inhibition at 10 µM [1] is reported as 93%, the “125I-ChTX Binding” value (Gardos channel) is reported as 1.000 and the “Displacement (%)” value (Gardos channel) is reported as 41.6%. For the same compound, the “Ca2+-activated 86Rb influx inhibition %” value ([2]; CLT day 3) was 74 ± 5%, the “Ca2+-activated 86Rb influx inhibition %” value ([2]; CLT day 6) was 73 ± 4% and the “Ca2+-activated 86Rb influx inhibition %” value ([2]; Wash-out day 6) was 71 ± 7%. For the same compound, the “Ca2+-activated 86Rb influx inhibition %” value ([2]; Wash-out day 10) was 75 ± 11%, the “Ca2+-activated 86Rb influx inhibition %” value ([2]; Wash-out day 13) was 58 ± 9% and the “Ca2+-activated 86Rb influx inhibition %” value ([2]; Wash-out day 20) was 0 ± 10%. For the same compound, the “persistence of inhibition of calcium-activated potassium transport after the drugs were discontinued” value ([2]; two subjects, oral CLT for six days) was “at least 7 days”, the “concentration at which inhibition of K+ transport reached maximal levels” value (red cell Gardos channel) was 5 µM and the “% control” value (red cell Gardos channel; 1 nM) was 100.3%. For the same compound, the flux (red cell Gardos channel; 1 nM) was 1.155, the inhibition at 0.001 µM (red cell Gardos channel; 1 nM) was -0.3% and the “% control” value (red cell Gardos channel; 10 nM) was 97.6%. The flux (red cell Gardos channel; 10 nM) was 1.124, the inhibition at 0.01 µM (red cell Gardos channel; 10 nM) was 2.4% and the “% control” value (red cell Gardos channel; 100 nM) was 77.4%. The flux (red cell Gardos channel; 100 nM) was 0.892, the inhibition at 0.1 µM (red cell Gardos channel; 100 nM) was 22.6% and the “% control” value (red cell Gardos channel; 500 nM) was 45.0%. The flux (red cell Gardos channel; 500 nM) was 0.518, the inhibition at 0.5 µM (red cell Gardos channel; 500 nM) was > 50% and the “% control” value (red cell Gardos channel; 1 μM) was 21.5%. The flux (red cell Gardos channel; 1 μM) was 0.248, the inhibition at 1 µM (red cell Gardos channel; 1 μM) was 78.5% and the “% control” value (red cell Gardos channel; 5 μM) was 3.3%. The flux (red cell Gardos channel; 5 μM) was 0.038, the inhibition at 5 µM (red cell Gardos channel; 5 μM) was 96.7% and the “% control” value (red cell Gardos channel; 10 μM) was 3.7%. For the same compound, the flux (red cell Gardos channel; 10 μM) was 0.043, the inhibition at 10 µM (red cell Gardos channel; 10 μM) was 96.3% and the “number of microscopic metastases” value ([3]; SCID mice) was 7±2. For the same compound, the “number of pleural metastases” value ([3]; SCID mice) was 2±1, the “systemic metastatic disease or toxicity” value ([3]; SCID mice) was “did not show any evidence of systemic metastatic disease or toxicity” and the weight gain ([3]; SCID mice) was “gained weight in comparable amounts”. For the same compound, the “treated animals free of macroscopic metastases” value ([3]; n=10) was “half”, the “treated animals without evidence of microscopic metastases” value ([3]; n=10) was “two” and the “Ca2+-activated 86Rb influx inhibition %” value ([4]; CLT day 3) was 80 ± 28%. For the same compound, the “Ca2+-activated 86Rb influx inhibition %” value ([4]; CLT day 6) was 83 ± 7%, the “Ca2+-activated 86Rb influx inhibition %” value ([4]; Wash-out day 8) was 79 ± 21% and the “Ca2+-activated 86Rb influx inhibition %” value ([4]; Wash-out day 10) was 82 ± 4%. The “Ca2+-activated 86Rb influx inhibition %” value ([4]; Wash-out day 13) was 37 ± 30% and the “Ca2+-activated 86Rb influx inhibition %” value ([4]; Wash-out day 20) was 0 ± 13%.
`OC(c1ccccc1)(c1ccccc1)c1ccccc1Cl` [Compound 6, 2-chlorophenyl-diphenylmethanol] showed an inhibition at 10 µM [1] of 31%, an IC50 ([1]; NIH3T3, read-out: Mitogen-induced cell proliferation IC50) of 2100 nM and an IC50 [5] of 961 nM. The inhibition at 10 µM ([5]; read-out: Gardos Channel % Inhibition) was 98%, the “125I-ChTX Binding” value (Gardos channel; 1 nM, red cells) was 1.403 and the “125I-ChTX Binding” value (Gardos channel; 10 nM, red cells) was 1.399. For the same compound, the “125I-ChTX Binding” value (Gardos channel; 100 nM, red cells) was 1.239, the “Displacement (%)” value (Gardos channel; 100 nM, red cells) was 6.0% and the “125I-ChTX Binding” value (Gardos channel; 500 nM, red cells) was 1.134. The “Displacement (%)” value (Gardos channel; 500 nM, red cells) was 21.6%, the “125I-ChTX Binding” value (Gardos channel; 1 μM, red cells) was 1.327 and the “125I-ChTX Binding” value (Gardos channel; 5 μM, red cells) was 1.016. The “Displacement (%)” value (Gardos channel; 5 μM, red cells) was 39.2%, the “125I-ChTX Binding” value (Gardos channel; 10 μM, red cells) was 0.790 and the “Displacement (%)” value (Gardos channel; 10 μM, red cells) was 72.9%. For the same compound, the “Displacement of 125I-ChTX binding (in words)” value (Gardos channel; red cells) was “specifically displaces”, the concentration at 6 day of CLT dosing (clinical; oral, 500 mg, Subject A) was 1100 nM and the concentration at 6 day (wash-out) (clinical; oral, 500 mg, Subject A, Wash-out day 6) was < 100 nM. For the same compound, the concentration at 10 day (wash-out) (clinical; oral, 500 mg, Subject A) was < 100 nM, the concentration at 13 day (wash-out) (clinical; oral, 500 mg, Subject A) was 0 nM and the concentration at 20 day (wash-out) (clinical; oral, 500 mg, Subject A) was 0 nM. The concentration at 3 day of CLT dosing (clinical; oral, 500 mg, Subject B, CLT day 3) was 800 nM, the concentration at 6 day of CLT dosing (clinical; oral, 500 mg, Subject B) was 1350 nM and the concentration at 8 day (wash-out) (clinical; oral, 500 mg, Subject B, Wash-out day 8) was < 100 nM. The concentration at 10 day (wash-out) (clinical; oral, 500 mg, Subject B) was < 100 nM, the concentration at 13 day (wash-out) (clinical; oral, 500 mg, Subject B) was 0 nM and the concentration at 20 day (wash-out) (clinical; oral, 500 mg, Subject B) was 0 nM. The concentration at 3 day of CLT dosing (clinical; Subject A, CLT day 3, oral CLT 500 mg every twelve hours) was 1100 nM, the IC50 (red cell Gardos channel) was 720 ± 190 nM and the “IC50 for inhibition of K+ transport relative to IC50 for displacement of 125I-ChTX” value (red cell Gardos channel) was “two to three fold lower”. The “concentration at which inhibition of K+ transport reached maximal levels” value (red cell Gardos channel) was 10 µM, the “% control” value (red cell Gardos channel; 1 nM) was 125.3% and the flux (red cell Gardos channel; 1 nM) was 1.444. For the same compound, the inhibition at 0.001 µM (red cell Gardos channel; 1 nM) was -25.3%, the “% control” value (red cell Gardos channel; 10 nM) was 96.8% and the flux (red cell Gardos channel; 10 nM) was 1.115. The inhibition at 0.01 µM (red cell Gardos channel; 10 nM) was 3.2%, the “% control” value (red cell Gardos channel; 100 nM) was 82.6% and the flux (red cell Gardos channel; 100 nM) was 0.952. The inhibition at 0.1 µM (red cell Gardos channel; 100 nM) was 17.4%, the “% control” value (red cell Gardos channel; 500 nM) was 62.2% and the flux (red cell Gardos channel; 500 nM) was 0.717. For the same compound, the inhibition at 0.5 µM (red cell Gardos channel; 500 nM) was 37.8%, the “% control” value (red cell Gardos channel; 1 μM) was 37.9% and the flux (red cell Gardos channel; 1 μM) was 0.437. The inhibition at 1 µM (red cell Gardos channel; 1 μM) was > 50%, the “% control” value (red cell Gardos channel; 5 μM) was 21.7% and the flux (red cell Gardos channel; 5 μM) was 0.25. For the same compound, the inhibition at 5 µM (red cell Gardos channel; 5 μM) was 78.3%, the “% control” value (red cell Gardos channel; 10 μM) was 9.8% and the flux (red cell Gardos channel; 10 μM) was 0.113. For the same compound, the inhibition at 10 µM (red cell Gardos channel; 10 μM) was 90.2%, the “inhibition of [3H]thymidine uptake versus controls” value [6] was “about 60%” and the “inhibition of [3H]thymidine uptake versus controls” value [7] was “about 50%”. For the same compound, the melting point was 92 to 93.5 °C and the “induction of hepatic microsomal cytochrome P450” value [8] was “does not induce”.
